Test results as given in patent US10266523B2, “Crystaline forms of N-[6-(cis-2,6-dimethylmorpholine-4-yl)pyridine-3-yl]-2-Methyl-4′-(trifluoromethoxy) [1,1′-biphenyl]-3-Methanamide monophosphate, and process of preparation thereof” (CRYSTAL PHARMATECH CO., LTD., priority 2015, dated 2019).
Entries after “also recorded” stand apart in the source; their conditions may differ. Where two headings read alike, the source gives them in different places. Each block holds one compound with its values, some of them ahead of it.

Key:
[1] = Solid-state storage stability, form change detected by XRPD; assay type: physicochemical; settings: 120 days
Description: The samples after storage were detected by XRPD.

[2] = cited from earlier work
[3] = Stability of crystalline forms in water and simulated biological media (saturated solution, XRPD of solid); assay type: physicochemical; settings: for Final form: SGF, listed as Crystalline Form A of monophosphate
Experimental: After being equilibrated for 1 hour, 4 hours and 24 hours, a small amount solid of each saturated solution was carried out for XRPD test, the testing result is shown in table 9, and the XRPD contrast diagram after 1 hour is shown in FIG. 9, wherein a is starting form of diphosphonate, b is monophosphate Form B of the present disclosure, c is the crystalline form of the diphosphonate after 1 hour in water, d is the crystalline form of the diphosphonate after 1 hour in SGF, e is the crystalline form of the diphosphonate after 1 hour in the FaSSIF, and f is the crystalline form of the diphosphonate after 1 hour in FeSSIF.

[4] = Hygroscopicity assessment by dynamic vapor sorption (DVS); assay type: physicochemical; settings: 25° C.; for Weight Gain at 80% Relative Humidity: DVS, 10 mg
Experimental: Dynamic Vapor Sorption (DVS) is measured via a SMS (Surface Measurement Systems) DVS Intrinsic, using 10 mg of crystalline form. Typical Parameters for DVS test are listed below: Temperature: 25° C. Gas and flow rate: N2, 200 mL/min dm/dt: 0.002%/min RH range: 0% RH to 95% RH Stable duration: 10 min Maximum equilibrate time: 180 min Humidity gradient: 10%(0% RH-90% RH), 5%(90% RH-95% RH), Hygroscopicity of 10 mg of monophosphate Form A of compound of formula (I) was tested using dynamic vapor sorption (DVS). About hygroscopicity characterization description and definition of hygroscopicity (Chinese Pharmacopoeia 2010 edition appendix XIXJ Drug hygroscopic test guidelines, test at 25° C.+/−1° C., 80% Relative Humidity) • deliquescent: sufficient water is absorbed to form a liquid. • very hygroscopic: increase in mass is equal to or greater than 15%. • hygroscopic: increase in mass is less than 15% and equal to or greater than 2%. • slightly hygroscopic: increase in mass is less than 2% and equal to or greater than 0.2%. • no or almost no hygroscopic: increase in mass is less than 0.2%.

[5] = Particle size distribution test (Microtrac S3500 laser particle size analyzer, wet process); assay type: physicochemical; settings: for MV (average particle size calculated by volume): dispersion medium Isopar G; for D10 / D50 / D90: volume distribution, Isopar G
Experimental: The particle size distribution test in the present disclosure is acquired by the S3500 laser particle size analyzer of Microtrac. Microtrac S3500 is equipped with the Sample Delivery Controller. The test is carried out by wet process, and the dispersion medium is Isopar G The parameters are as follow: [table] 10-30 mg sample was dispersed with 10 mL Isopar G (containing 0.2% of lecithin). The sample is added into the SDC sample injection system when fully mixed. Start the experiment when the sample amount indication chart reaches a proper position. The result of particle size distribution test is shown in table 13, the particle size distribution diagram of the Form A is shown in FIG. 10, and the particle size distribution diagram of the Form B of monophosphate is shown in FIG. 11.

[6] = listed as Crystalline Form A of monophosphate
[7] = listed as Crystalline Form B of monophosphate

- Form Change ([1]; 5° C.): Diphosphonate
- Form Change ([1]; 25° C./60% RH): Diphosphonate
- Form Change ([1]; 40° C./75% RH, listed as diphosphonate in CN102159570): partly changed into Form B
- form conversion in media ([3]; four media, equilibrated for 1 hour): convert into Form B of monophosphate
Compound: Cc1c(C(=O)Nc2ccc(N3C[C@@H](C)O[C@@H](C)C3)nc2)cccc1-c1ccc(OC(F)(F)F)cc1.O=P(O)(O)O.O=P(O)(O)O [Diphosphonate in CN102159570, reference compound]
- XRPD of the crystalline form after storage ([2]; 50° C./75% RH, 2 weeks): slightly changed
- XRPD of the crystalline form after storage ([2]; 80° C./75% RH, two weeks): changed

- Weight Gain at 80% Relative Humidity [4]: 0.59%
- Weight Gain at 80% Relative Humidity ([4]; listed as monophosphate Form A): 0.59%
- MV (average particle size calculated by volume) [5, 6]: 136.5 um
- D10 [5, 6]: 22.7 um
- D50 [5, 6]: 100.2 um
- D90 [5, 6]: 305.2 um
- Form Change ([1]; 5° C.): Form A
- Form Change ([1]; 25° C./60% RH): Form A
- Form Change ([1]; 40° C./75% RH): Form A and Form B
- Final form ([3]; equilibrium time 1 h): Changed
- Final form ([3]; equilibrium time 4 h): Changed
- Final form ([3]; equilibrium time 24 h): Changed
- stability of crystalline form in media ([3]; water, FaSSIF and FeSSIF, after 1, 4, and 24 hours): stable
Compound: Cc1c(C(=O)Nc2ccc(N3CC(C)OC(C)C3)nc2)cccc1-c1ccc(OC(F)(F)F)cc1 (stereo not drawn) [Form A, N-[6-(cis-2,6-dimethylmorpholine-4-yl)pyridine-3-yl]-2-methyl-4′-(trifluoromethoxy) [1,1′-biphenyl]-3-carboxamide monophosphate]
- hygroscopicity class (Chinese Pharmacopoeia 2010 definition) ([4]; 80% Relative Humidity): slightly hygroscopic (increase in mass is less than 2% and equal to or greater than 0.2%)
- particle size homogeneity and dispersion [5]: homogeneous particle size and good dispersion

- MV (average particle size calculated by volume) [5, 7]: 55.4 um
- D10 [5, 7]: 8.8 um
- D50 [5, 7]: 37.5 um
- D90 [5, 7]: 124.2 um
- Form Change ([1]; 5° C.): Form B
- Form Change ([1]; 25° C./60% RH): Form B
- Form Change ([1]; 40° C./75% RH): remains unchanged; also recorded: Form B
- stability of crystalline form in media ([3]; all of the four kinds of media (water, SGF, FaSSIF, FeSSIF)): do not change
Compound: Cc1c(C(=O)Nc2ccc(N3CC(C)OC(C)C3)nc2)cccc1-c1ccc(OC(F)(F)F)cc1 (stereo not drawn) [Form B, N-[6-(cis-2,6-dimethylmorpholine-4-yl)pyridine-3-yl]-2-methyl-4′-(trifluoromethoxy) [1,1′-biphenyl]-3-carboxamide monophosphate]
- particle size homogeneity and dispersion [5]: homogeneous particle size and good dispersion
